In brackets after ≈: the same amount, converted by molar mass.
Columns and labels:
[1] = system: M. hyopneumoniae NB12; test: MIC against Mycoplasma in vitro (Friis broth with agarose); assay type: cell-based; conditions: Mesomycoplasma hyopneumoniae, NB12, 144 h
[2] = system: M. hyopneumoniae HK (2); test: as above; assay type: cell-based; conditions: Mesomycoplasma hyopneumoniae, 144 h
[3] = system: M. hyopneumoniae Str. 11; test: as above; assay type: cell-based; conditions: Mesomycoplasma hyopneumoniae, STR.11, 144 h
[4] = system: M. hyopneumoniae J2206/183^b; test: as above; assay type: cell-based; conditions: Mesomycoplasma hyopneumoniae, 144 h
[5] = system: M. hyopneumoniae PW/C/210; test: as above; assay type: cell-based; conditions: Mesomycoplasma hyopneumoniae, 144 h
[6] = system: M. hyopneumoniae LABER; test: as above; assay type: cell-based; conditions: Mesomycoplasma hyopneumoniae, 144 h
[7] = system: M. hyopneumoniae NCTC 101101; test: as above; assay type: cell-based; conditions: Mesomycoplasma hyopneumoniae, NCTC101101, 144 h
[8] = system: Bacillus subtilis 6633; test: MIC against human bacteria in vitro (nutrient agar, chocolated horse blood); assay type: cell-based; conditions: Bacillus subtilis, 6633, 18 h
Outline: (§1)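 Serial dilutions in nutrient agar plus 5% chocolated horse blood served as the in vitro test system.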

[9] = system: Corynebacterium xerosis 9755; test: as above; assay type: cell-based; conditions: Corynebacterium xerosis, 9755, 18 h
Outline: as §1

[10] = system: E. coli ESS; test: as above; assay type: cell-based; conditions: Escherichia coli, 18 h
Outline: as §1

[11] = system: E. coli NCTC 10418; test: as above; assay type: cell-based; conditions: Escherichia coli, NCTC10418, 18 h
Outline: as §1

[12] = system: Haemophilus influenzae Q1; test: as above; assay type: cell-based; conditions: Haemophilus influenzae, Q1, 18 h
Outline: as §1

[13] = system: Haemophilus influenzae Wy21; test: as above; assay type: cell-based; conditions: Haemophilus influenzae, WY21, 18 h
Outline: as §1

[14] = system: K. aerogenes A; test: as above; assay type: cell-based; conditions: Klebsiella aerogenes, 18 h
Outline: as §1

[15] = system: Neisseria catarrhalis 1502; test: as above; assay type: cell-based; conditions: Neisseria, 1502, 18 h
Outline: as §1

[16] = system: P. mirabilis 889; test: as above; assay type: cell-based; conditions: Proteus mirabilis, 889, 18 h
Outline: as §1

[17] = system: Pasteurella multocida 1633; test: as above; assay type: cell-based; conditions: Pasteurella multocida, 1633, 18 h
Outline: as §1

[18] = system: Ps. aeruginosa NCTC 10662; test: as above; assay type: cell-based; conditions: Pseudomonas aeruginosa, NCTC10662, 18 h
Outline: as §1

[19] = system: Sarcina lutea 8340; test: as above; assay type: cell-based; conditions: Micrococcus luteus, 8340, 18 h
Outline: as §1

[20] = system: Staph. aureus Oxford; test: as above; assay type: cell-based; conditions: Staphylococcus aureus, 18 h
Outline: as §1

[21] = system: Staph. aureus Russell; test: as above; assay type: cell-based; conditions: Staphylococcus aureus, 18 h
Outline: as §1

[22] = system: Staph. aureus W2827; test: as above; assay type: cell-based; conditions: Staphylococcus aureus, W2827, 18 h
Outline: as §1

[23] = system: Strep. agalactiae 2788-B; test: as above; assay type: cell-based; conditions: Streptococcus agalactiae, 2788B, 18 h
Outline: as §1

[24] = system: Strep. faecalis I; test: as above; assay type: cell-based; conditions: Enterococcus faecalis, 18 h
Outline: as §1

[25] = system: Strep. pneumoniae CN33; test: as above; assay type: cell-based; conditions: Streptococcus pneumoniae, CN33, 18 h
Outline: as §1

[26] = system: Strep. pyogenes R80/421-A; test: as above; assay type: cell-based; conditions: Streptococcus pyogenes, R80/421A, 18 h
Outline: as §1

[27] = system: Strep. spp. 64/848-C; test: as above; assay type: cell-based; conditions: 18 h
Outline: as §1

[28] = system: Strep. dysgalactiae SPD1; test: MIC against veterinary bacteria in vitro (Diagnostic Sensitivity Test Agar); conditions: Streptococcus dysgalactiae, SPD1, 18 h
Method: The activity of the normonyl derivatives of the Examples against various veterinarily important bacteria, was assayed in vitro using two-fold serial dilutions in Diagnostic Sensitivity Test Agar inoculated with 10^4 organisms.

CC(=CC(=O)NN)CC1OCC(CC2OC2C(C)C(C)O)C(O)C1O (stereo not shown) [Example 9, Monohydrazide A]
MIC [1]: 10 µg/mL (≈ 27.9 µM) | MIC [2]: 10 µg/mL (≈ 27.9 µM) | MIC [3]: 5 µg/mL (≈ 13.9 µM) | MIC [4]: 10 µg/mL (≈ 27.9 µM) | MIC [5]: 5 µg/mL (≈ 13.9 µM) | MIC [6]: 5 µg/mL (≈ 13.9 µM) | MIC [7]: 10 µg/mL (≈ 27.9 µM) | MIC [8]: ≥ 100 µg/mL | MIC [9]: > 100 µg/mL | MIC [10]: ≥ 100 µg/mL | MIC [11]: > 100 µg/mL | MIC [12]: 2.5 µg/mL (≈ 6.97 µM) | MIC [13]: 2.5 µg/mL (≈ 6.97 µM) | MIC [14]: > 100 µg/mL | MIC [15]: 2.5 µg/mL (≈ 6.97 µM) | MIC [16]: ≥ 100 µg/mL | MIC [17]: 10 µg/mL (≈ 27.9 µM) | MIC [18]: > 100 µg/mL | MIC [19]: > 100 µg/mL | MIC [20]: 100 µg/mL (≈ 279 µM) | MIC [21]: ≥ 100 µg/mL | MIC [22]: ≥ 100 µg/mL | MIC [23]: ≥ 100 µg/mL | MIC [24]: > 100 µg/mL | MIC [25]: ≥ 100 µg/mL | MIC [26]: 100 µg/mL (≈ 279 µM) | MIC [27]: ≥ 100 µg/mL | MIC [28]: > 80 µg/mL
